Experimental data as given in paper PMC10096648, “A conserved hymenopteran-specific family of cytochrome P450s protects bee pollinators from toxic nectar alkaloids” (Science Advances, 2023).

Columns and labels:
[1] = target: T1, CYP336A1 (Apis mellifera, UniProt A0A8U0WT43, D298G); assay: fluorogenic model substrate assay, recombinant microsomes; format: biochemical; settings: NADPH; activity present only in the mutant
T1 construct: gene LOC724211; codon-optimised; microsomes of baculovirus-infected High Five insect cells, coexpressed with A. mellifera NADPH-cytochrome P450 reductase
T1 sequence (A0A8U0WT43 entry or part of it D298G): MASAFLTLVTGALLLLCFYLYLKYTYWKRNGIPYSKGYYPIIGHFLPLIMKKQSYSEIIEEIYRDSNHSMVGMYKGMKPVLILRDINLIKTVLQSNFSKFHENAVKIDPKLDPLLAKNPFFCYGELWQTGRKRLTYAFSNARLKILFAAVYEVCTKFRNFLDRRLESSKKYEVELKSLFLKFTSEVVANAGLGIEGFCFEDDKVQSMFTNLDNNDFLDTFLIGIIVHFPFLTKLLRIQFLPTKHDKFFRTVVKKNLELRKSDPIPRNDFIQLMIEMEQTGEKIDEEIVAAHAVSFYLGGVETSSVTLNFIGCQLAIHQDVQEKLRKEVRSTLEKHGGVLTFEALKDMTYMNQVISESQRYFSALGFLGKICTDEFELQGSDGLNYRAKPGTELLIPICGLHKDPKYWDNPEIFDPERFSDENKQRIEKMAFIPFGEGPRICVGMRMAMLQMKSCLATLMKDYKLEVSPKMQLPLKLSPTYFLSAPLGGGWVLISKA

[2] = substrate: CN1CCC[C@H]1c1cccnc1; assay: nicotine depletion by UPLC-MS/MS, recombinant microsomes; format: biochemical, Apis mellifera; settings: NADPH regeneration system, pH 7.6, 30°C, 30 min, 0.78-100 μM nicotine

`O=c1cc(C(F)(F)F)c2ccc(OCc3ccccc3)cc2o1` [BFC, 7-benzyloxy-4-(trifluoromethyl)coumarin] was tested, and the “fluorogenic model substrate assay, recombinant microsomes” value [1] was “the D298G substitution leads to significant activity toward BFC”.

B1: CYP336A1 (Apis mellifera) (protein)
chain: MASAFLTLVTGALLLLCFYLYLKYTYWKRNGIPYSKGYYPIIGHFLPLIMKKQSYSEIIEEIYRDSNHSMVGMYKGMKPVLILRDINLIKTVLQSNFSKFHENAVKIDPKLDPLLAKNPFFCYGELWQTGRKRLTYAFSNARLKILFAAVYEVCTKFRNFLDRRLESSKKYEVELKSLFLKFTSEVVANAGLGIEGFCFEDDKVQSMFTNLDNNDFLDTFLIGIIVHFPFLTKLLRIQFLPTKHDKFFRTVVKKNLELRKSDPIPRNDFIQLMIEMEQTGEKIDEEIVAAHAVSFYLDGVETSSVTLNFIGCQLAIHQDVQEKLRKEVRSTLEKHGGVLTFEALKDMTYMNQVISESQRYFSALGFLGKICTDEFELQGSDGLNYRAKPGTELLIPICGLHKDPKYWDNPEIFDPERFSDENKQRIEKMAFIPFGEGPRICVGMRMAMLQMKSCLATLMKDYKLEVSPKMQLPLKLSPTYFLSAPLGGGWVLISKA
notes: codon-optimised; microsomes of baculovirus-infected High Five insect cells, coexpressed with A. mellifera NADPH-cytochrome P450 reductase
In the case of B1, the Km [2] is reported as 12.77 µM.
